Data reported in patent US20250136559A1, “SMO MODULATOR COMPOUNDS” (OMASS THERAPEUTICS LIMITED, priority 2022, published 2025).

How the values were obtained:
Type in all cases: cell-based
[1] = biological target: T1, mouse SMO^WT (Mus musculus, UniProt P56726); assay: Mouse assay: Gli1 qPCR in MEF cells stably expressing mouse SMO WT; conditions: mSHh-treated, 24 hours; for IC50: Gli1 inhibition by qPCR, read-out: Mouse WT pIC50 (converted); for Mouse WT % Inh: percentage Gli1 inhibition
T1 construct: expressed in transfected cells
Procedure: (§1) Cell culture. All materials were purchased from Sigma-Aldrich, unless otherwise stated.
(§2) Compound treatment. […] After 1 hour incubation, cells were treated with assay medium containing mSHh prepared at 2.5× of final assay concentrations specified in the text and incubated for a further 24 hours at 37′C in a humidified 95% air/5% CO2 atmosphere prior to qPCR analysis.
(§3) Cell lysis and one-step qPCR. The Cells-to-CT™ 1-Step TaqMan® Kit was used in conjunction with TaqMan primer-probe assays for the detection of Gli1 (FAM, Mm00494654_m1) and Gusb (VIC, Mm01197698_m1) genes (all purchased from Life Technologies). Following 24 hours cell treatment, spent medium was removed and cells were washed with PBS before the application of lysis and stop solution as per manufacturer's instructions. The qPCR reactions were run in a 384-well PCR plate using master mix prepared according to manufacturer's instructions and cell lysate samples from treatment wells. Real-time PCR amplification was detected using the Bio-Rad CFX384 Touch PCR system. Four experimental replicates (two cell replicates and two qPCR replicates) were performed for each compound concentration tested. Real-time data were analysed using the CFX Maestro software (Bio-Rad) and obtained expression values were converted to percentage Gli1 inhibition by normalising to the average Gli1 expression of mSHh-treated control samples.

[2] = biological target: T2, mouse SMO^D473H (Mus musculus, UniProt P56726, D477H); assay: Mouse assay: Gli1 qPCR in MEF cells stably expressing mouse SMO D473H; conditions: mSHh-treated, 24 hours; for IC50: Gli1 inhibition by qPCR, read-out: Mouse D473H pIC50 (converted); for Mouse D473H % Inh: percentage Gli1 inhibition
T2 construct: expressed in transfected cells
Procedure: as §1, §2, §3

[3] = biological target: T3, mouse SMO^W535L (Mus musculus, UniProt P56726, W539L); assay: Mouse assay: Gli1 qPCR in MEF cells stably expressing mouse SMO W535L; conditions: mSHh-treated, 24 hours; for IC50: Gli1 inhibition by qPCR, read-out: Mouse W535L pIC50 (converted); for Mouse W535L % Inh: percentage Gli1 inhibition
T3 construct: expressed in transfected cells
Procedure: as §1, §2, §3

T1 sequence (P56726 33-793): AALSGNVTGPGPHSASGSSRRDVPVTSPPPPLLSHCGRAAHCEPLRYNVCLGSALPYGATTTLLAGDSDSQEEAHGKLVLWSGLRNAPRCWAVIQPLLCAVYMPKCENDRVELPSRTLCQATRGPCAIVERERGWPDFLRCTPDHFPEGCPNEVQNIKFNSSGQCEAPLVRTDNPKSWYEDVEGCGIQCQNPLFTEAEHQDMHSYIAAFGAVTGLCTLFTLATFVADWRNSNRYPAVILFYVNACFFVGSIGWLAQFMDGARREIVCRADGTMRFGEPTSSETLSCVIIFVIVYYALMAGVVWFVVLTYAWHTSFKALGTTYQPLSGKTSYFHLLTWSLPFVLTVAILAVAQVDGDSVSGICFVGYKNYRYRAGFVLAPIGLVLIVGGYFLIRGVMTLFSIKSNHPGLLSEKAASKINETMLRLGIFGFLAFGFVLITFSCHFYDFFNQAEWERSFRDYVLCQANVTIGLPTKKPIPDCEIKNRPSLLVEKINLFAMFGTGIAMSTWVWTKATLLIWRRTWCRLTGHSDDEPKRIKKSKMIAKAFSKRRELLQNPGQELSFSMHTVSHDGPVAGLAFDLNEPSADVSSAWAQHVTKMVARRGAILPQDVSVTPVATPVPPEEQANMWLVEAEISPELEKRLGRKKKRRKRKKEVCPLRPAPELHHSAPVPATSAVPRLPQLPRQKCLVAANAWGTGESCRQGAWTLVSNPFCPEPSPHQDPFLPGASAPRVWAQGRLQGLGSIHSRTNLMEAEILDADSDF
T3 sequence (P56726 33-793 W539L): as the sequence (P56726 33-793) above, with W507L counted along it
T2 sequence (P56726 33-793 D477H): as the sequence (P56726 33-793) above, with D445H counted along it

Structure (SMILES) | IC50 [1] [nM] | Mouse WT % Inh [1] [%] | IC50 [2] [nM] | Mouse D473H % Inh [2] [%] | IC50 [3] [nM] | Mouse W535L % Inh [3] [%]
CC(C)(C)c1n[nH]c(-c2ccc(NC(=O)c3cccc(CN4CCS(=O)(=O)CC4)c3)cc2)n1 [Example 3-2, N-[4-(5-tert-Butyl-1H-1,2,4-triazol-3-yl)phenyl]-3-[(1,1-dioxo-1,4-thiazinan-4-yl)methyl]benzamide] | 25.1 | 97.3 | 501 | 91.0 | 100 | 41.6
O=C(Nc1ccc(-c2cc(C3CC3)no2)cc1)c1cccc(CN2CCS(=O)(=O)CC2)c1 [Example 4-6] | 12.6 | 99.0 | 79.4 | 99.3 | 126 | 76.9
O=C(Nc1ccc(-c2nc(-c3cccc(F)c3)n[nH]2)cc1)c1cccc(CN2CCS(=O)(=O)CC2)c1 [Example 3-10, 3-[(1,1-Dioxo-1,4-thiazinan-4-yl)methyl]-N-[4-[3-(3-fluorophenyl)-1H-1,2,4-triazol-5-yl]phenyl]benzamide] | 12.6 | 99.1 | 251 | 97.9 | 100 | 63.9
Cl.O=C(Nc1ccc(-c2nc(C3CC3)no2)cc1)c1cccc(CN2CCS(=O)(=O)CC2)c1 [Example 4-11, N-[4-(3-Cyclopropyl-1,2,4-oxadiazol-5-yl)phenyl]-3-[(1,1-dioxo-1,4-thiazinan-4-yl)methyl]benzamide] | 50.1 | 99.7 | 158 | 99.5 | 158 | 63.8
Cc1cc(Cc2n[nH]c(-c3ccc(NC(=O)c4cccc(CN5CCS(=O)(=O)CC5)c4)cc3)n2)ccc1Br [Example 3-27, N-[4-[5-[(4-Bromo-3-methylphenyl)methyl]-1H-1,2,4-triazol-3-yl]phenyl]-3-[(1,1-dioxo-1,4-thiazinan-4-yl)methyl]benzamide] | 15.8 | 99.3 | 631 | 97.0 | 158 | 57.3
O=C(Nc1ccc(-c2noc(C3CCC3)n2)cc1)c1cccc(CN2CCS(=O)(=O)CC2)c1 [Example 4-13, N-[4-(5-Cyclobutyl-1,2,4-oxadiazol-3-yl)phenyl]-3-[(1,1-dioxo-1,4-thiazinan-4-yl)methyl]benzamide] | 50.1 | 98.8 | 316 | 99.0 | 501 | 77.4
COc1cccc(Cc2n[nH]c(-c3ccc(NC(=O)c4cccc(CN5CCS(=O)(=O)CC5)c4)cc3)n2)c1 [Example 3-22, 3-[(1,1-Dioxo-1,4-thiazinan-4-yl)methy]-N-[4-[5-[(3-methoxyphenyl)methyl]-1H-1,2,4-triazol-3-yl]phenyl]benzamide] | 7.94 | 98.5 | 63.1 | 98.2 | 31.6 | 60.1
O=C(Nc1ccc(-c2nc(Cc3ccc(Cl)cc3)n[nH]2)cc1)c1cccc(CN2CCS(=O)(=O)CC2)c1 [Example 3-23, N-[4-[3-[(4-Chlorophenyl)methyl]-1H-1,2,4-triazol-5-yl]phenyl]-3-[(1,1-dioxo-1,4-thiazinan-4-yl)methyl]benzamide] | 7.94 | 99.5 | 316 | 95.0 | 25.1 | 58.2
Cc1c(-c2ccc(NC(=O)c3cccc(CN4CCS(=O)(=O)CC4)c3)cc2)nn(C)c1C1CC1 [Example 4-25, N-[4-(5-Cyclopropyl-1,4-dimethylpyrazol-3-yl)phenyl]-3-[(1,1-dioxo-1,4-thiazinan-4-yl)methyl]benzamide] | 0.398 | 98.3 | 5.01 | 98.6 | 15.8 | 65.7
O=C(Nc1ccc(-c2nc(C3CCN(c4ccccc4)C3)n[nH]2)cc1)c1cccc(CN2CCS(=O)(=O)CC2)c1 (stereo not drawn) [Example 3-8, 3-[(1,1-Dioxo-1,4-thiazinan-4-yl)methyl]-N-[4-[3-(1-phenylpyrrolidin-3-yl)-1H-1,2,4-triazol-5-yl]phenyl]benzamide] | 20 | 98.6 | 158 | 98.0 | 100 | 57.9
O=C(Nc1ccc(-c2noc(C3CCCC3)n2)cc1)c1cccc(CN2CCS(=O)(=O)CC2)c1 [Example 4-14, N-[4-(5-Cyclopentyl-1,2,4-oxadiazol-3-yl)phenyl]-3-[(1,1-dioxo-1,4-thiazinan-4-yl)methyl]benzamide] | 10 | 98.2 | 200 | 99.1 | 794 | 74.2
O=C(Nc1ccc(-c2noc(Cc3ccc(Cl)cc3)n2)cc1)c1cccc(CN2CCS(=O)(=O)CC2)c1 [Example 4-18, N-[4-[5-[(4-Chlorophenyl)methyl]-1,2,4-oxadiazol-3-yl]phenyl]-3-[(1,1-dioxo-1,4-thiazinan-4-yl)methyl]benzamide] | 2.51 | 98.7 | 15.8 | 99.2 | 39.8 | 82.7
O=C(Nc1ccc(-c2nc(-c3ccc(COc4ccccc4F)cc3)n[nH]2)cc1)c1cccc(CN2CCS(=O)(=O)CC2)c1 [Example 3-14, 3-[(1,1-Dioxo-1,4-thiazinan-4-yl)methy]-N-[4-[3-[4-[(2-fluorophenoxy)methyl]phenyl]-1H-1,2,4-triazol-5-yl]phenyl]benzamide] | 39.8 | 97.3 | 251 | 95.2 | 631 | 50.9
COc1ccc(Cc2n[nH]c(-c3ccc(NC(=O)c4cccc(CN5CCS(=O)(=O)CC5)c4)cc3)n2)cn1 [Example 3-30, 3-[(1,1-Dioxo-1,4-thiazinan-4-yl)methyl]-N-[4-[5-[(6-methoxypyridin-3-yl)methyl]-1H-1,2,4-triazol-3-yl]phenyl]benzamide] | 79.4 | 99.0 | 631 | 98.4 | 501 | 69.1
O=C(Nc1ccc(-c2nc(C3CC3)n[nH]2)cc1)c1cccc(CN2CCSCC2)c1 [Example 1-1, N-[4-(3-cyclopropyl-1H-1,2,4-triazol-5-yl)phenyl]-3-(thiomorpholin-4-ylmethyl)benzamide] | 20 | 99.4 | 200 | 99.3 | 251 | 66.8
Cn1nc(-c2ccc(NC(=O)c3ccc(Cl)c(CN4CCS(=O)(=O)CC4)c3)cc2)cc1C1CC1 [Example 4-24, 4-Chloro-N-[4-(5-cyclopropyl-1-methylpyrazol-3-yl)phenyl]-3-[(1,1-dioxo-1,4-thiazinan-4-yl)methyl]benzamide] | 0.631 | 97.9 | 7.94 | 98.1 | 10 | 70.0
O=C(Nc1ccc(-c2cnc(C3CC3)o2)cc1)c1cccc(CN2CCS(=O)(=O)CC2)c1 [Example 4-5, N-[4-(2-Cyclopropyl-1,3-oxazol-5-yl)phenyl]-3-[(1,1-dioxo-1,4-thiazinan-4-yl)methyl]benzamide] | 7.94 | 99.9 | 100 | 99.7 | 158 | 63.2
CC(C)c1n[nH]c(-c2ccc(NC(=O)c3cccc(CN4CCS(=O)(=O)CC4)c3)cc2)n1.Cl [Example 3-1, 3-[(1,1-dioxo-1,4-thiazinan-4-yl)methyl]-N-[4-(3-propan-2-yl-1H-1,2,4-triazol-5-yl)phenyl]benzamide] | 20 | 99.1 | 158 | 96.6 | 200 | 77.1
O=C(Nc1ccc(-c2nc(C3CC3)n[nH]2)cc1)c1ccc(Cl)c(CN2CCS(=O)(=O)CC2)c1 [Example 2-5, 4-Chloro-N-[4-(5-cyclopropyl-1H-1,2,4-triazol-3-yl)phenyl]-3-[(1,1-dioxo-1,4-thiazinan-4-yl)methyl]benzamide] | 15.8 | 95.5 | 158 | 94.4 | 100 | 72.2
